Results reported in patent publication EP0942896B1, “SUBSTITUTED PHENOLS AND THIOPHENOLS USEFUL AS ANTIOXIDANT AGENTS” (Aventis Pharmaceuticals Inc., priority 1996, dated 1998).
Like-named read-outs stand apart in the source and are kept apart here.

Assays:
[1] = tested on: Male Sprague-Dawley Rats; assay: Serum clinical chemistries in rats fed compound as dietary admixture; type: in vivo; conditions: % of control, diet 0.3%, 4 days, N = 5; for ALT: alanine aminotransferase in rat serum; for ALP: alkaline phosphatase in rat serum; for AST: aspartate aminotransferase in rat serum; for GLUC: glucose in rat serum; for response vs control in vivo at 0.3 % in diet: feed or water, 96 h
Text: (§1) A typical experiment consists of 4-6 groups of rats (N = 5 per group) with I group being a control which receives no MDL compound and the other groups being treated with 0.3% MDL compound. Some of the compounds are either repeated at 0.3% or evaluated again at the lower dose of 0.1%. House Male Sprague-Dawley rats, 50-100 g, (Harlan Laboratories, Indianapolis, IN) in groups of 5, feeding ad libitum water and Purina Rodent chow (#5002) with or without MDL compound as a dietary admixture for 4 days. Make dietary admixtures (0.3%) by mixing 1.2 grams of an MDL compound with 400 grams of Purina rodent chow (#5002). Mix the MDL compound with approximately 50 grams of food using a mortar and pestle. This is added to the remainder of the food and mixed for 3 hours on a rotary mixer. In the morning of day 5, anesthetize non-fasted rats with carbon dioxide, and collect blood by cardiac puncture. Sacrifice rats by cervical dislocation. Record body weights and liver weights in grams. Record food consumption as grams • day^-1 • rat^-1. Deaths are recorded as mortality. Use aliquots of fresh serum for clinical chemistries, thiobarbituric acid reactive substances (TBARS) and conjugated diene measurements. Freeze aliquots of serum (∼ 0.5mL) and whole livers at -20°C for compound and metabolite concentration determination at a later time.
Allow blood to clot at room temperature for 30 minutes. Obtain serum after centrifugation for 10 min at 4°C at 3000 rpm in a Beckman J-6M/E centrifuge with a JS-4.2 rotor. Analyze fresh serum by a COBAS MIRA S autoanalyzer (Roche Diagnostics) using Roche diagnostic reagents for the following clinical chemistry measurements: alkaline phosphatase (ALP, kit # 44553), alanine transaminase (ALT, kit # 42375), aspartate aminotransferase (AST, kit # 42381), total cholesterol (CHOL, kit # 44334), triglyceride (TG, kit # 44120), and glucose (GLU, kit # 44558). Calculate ALP, ALT, and AST as units/L. Calculate cholesterol, triglycerides, and glucose as mg/dL.

[2] = HPLC quantitation of compound and metabolite concentration in rat serum and liver; type: in vivo; conditions: male, Sprague-Dawley, oral, 0.3 % in chow, diet 0.3%, 4 days, mean N = 5
Text: as §1
Determine serum and liver concentrations of parent compound and the metabolites, bisphenol and diphenoquinone, by reverse phase HPLC using a Waters 990 Powerline system. Homegenize livers (1 gram samples) with 5.0mL PBS, pH 7.4, using a Polytron tissue homogenizer at setting 5 for 20-30 seconds. Extract serum or liver homogenates as follows: add 100µL of either serum or homogenate to 2.0mL diethyl ether: ethanol (3:1) while vortexing the tube. Cap the sample tubes and centrifuge for 10 min at 5°C at 3500 rpm in a Beckman GPKR centrifuge with a GH 3.7 rotor. Transfer the supernatants to clean tubes and dry under N2. Reconstitute samples with 200µL of acetonitrile : hexane : 0.1 M ammonium acetate (90: 6.5 : 3.5, by vol.). Then, inject 100µL onto a Waters Deltapak C18-300 Å column, and elute with an 83% acetonitrile : 17% water mobile phase at a flow rate of 1.5mL/min. Record absorbances at the wavelengths of 240, 254, and 420nm. Calculate compound concentrations from known quantities of authentic parent compounds after correction for recovery. […]. Calculate concentrations as µg/mL of serum and µg/g of liver.

[3] = tested on: VCAM-1; assay: Inhibition of cytokine-induced VCAM-1 expression in human aortic smooth muscle cells (cell ELISA); type: cell-based; conditions: HASMC, interleukin-4 stimulated, average of three runs, read-out: VCAM-1 (% inh. 50 µM)
Protocol: Plate proliferating human umbilical vein endothelial cells (HUVEC) or human aortic smooth muscle cells (HASMC) from Clonetics (San Diego, CA) onto 96-well plates in 100 µL medium per well at 20,000 cells per cm^2. Maintain the cultures in growth medium (EGM or SMGM2, Clonetics, San Diego, CA) for two days prior to addition of cytokines or drugs. Add cytokines plus or minus compounds for 20 to 24 hours prior to analysis for adhesion molecule levels. Add tumor necrosis factor (Genzyme, Cambridge, MA) to cultures at 500-1000 units/mL to stimulate ICAM-1 expression. Add interleukin-4 (GIBCO-BRL, Gaithersburg, MD) to cultures at 100-200 pg/mL to stimulate VCAM-1 expression. […] Remove the culture medium, and wash the monolayers twice with Hanks buffered saline solution (HBSS) at room temperature. Add the primary antibody (anti-human VCAM-1 from Upstate Biotechnology, Inc., Lake Placid, NY or anti-human ICAM-1 from Immunotech, Inc., Westbrook, ME) to each well (1 µg/mL in HBSS plus 5% newborn calf serum, GIBCO-BRL, Gaithersburg, MD) and incubate at 37°C for 1 hr. Wash the wells twice with HBSS, then add 100 µL of a 1/1000 dilution of goat anti-mouse IgG conjugated to horse radish peroxidase (BioRad, Hercules, CA) in HBSS plus 5% newborn calf serum to each well and incubated for 1 hr at 37°C. Wash the wells three times with HBSS, then add 100 µL of TMB substrate (BioRad, Hercules, CA) to each well. Stop the reaction after blue color develops by addition of 50 µL of IN H2SO4. Measure absorbance at 450 nm with a plate reader.
Table 1 summarizes the ability of selected compounds of this invention to inhibit VCAM-1 and ICAM-1 using human aortic smooth muscle cells (HASMC). In these experiments, the cells were coincubated with interleukin-4 to stimulate VCAM-1 expression and with tumor necrosis factor-alpha to stimulate ICAM-1 expression.

[4] = tested on: oxidation of lipids; assay: Conjugated diene lag phase determination on pooled serum of treated rats; type: in vivo, Male Sprague-Dawley rats; conditions: not normalized, mean of 2 determinations of pooled rat serum (N = 5), diet 0.3%, 4 days
Text: as §1
Conjugated diene lag phase is another indicator of the oxidation of lipids. Lipids exposed to Cu^++ form conjugated dienes that absorb ultraviolet light in the range of 230 to 235 nm. The lag phase of diene formation gives an indication of the amount of oxidation of the lipids. A lag phase longer than control samples indicate inhibition of the oxidation. Determine conjugated diene lay phase using a Varian DMS200 spectrophotometer (fitted with a constant temperature, 5 cuvette sample changer) at 30°C. Add twenty (20) µL of pooled serum to cuvettes containing 3.0mL phosphate buffered saline, pH 7.5, and mix. Measure the absorbances of all cuvettes and set the instrument baseline to zero using the lowest absorbing sample. Next, add 100µL of 1 mmol CuSO4 and mix immediately. Record the absorbance of each cuvette at 2 min intervals for a period of 840 min. Capture the data and transfer to a Microsoft EXCEL® spreadsheet where the curves are smoothed and differentials obtained. Determine lag times mathematically as minutes. Pool serum samples (N = 5); data presented are the mean values of 2 determinations. Compare serum samples from treated rats to serum samples from control rats that received no MDL compound.

[5] = total cholesterol in rat serum, read-out: CHOL
[6] = triglycerides in rat serum, read-out: TRIG
[7] = parent compound concentration in rat liver, read-out: Liver Parent
[8] = parent compound concentration in rat serum, read-out: Serum Parent

| SMILES | ALT [1] [%] | ALP [1] [%] | AST [1] [%] | GLUC [1] [%] | response vs control in vivo at 0.3 % in diet [1, 5] [%] | response vs control in vivo at 0.3 % in diet [1, 6] [%] | concentration at 5 day [2, 7] [ng/g] | concentration at 5 day [2, 8] [ng/mL] | inhibition at 50 µM [3] [%] | CONJ. DIENE [4] [min] |
| --- | --- | --- | --- | --- | --- | --- | --- | --- | --- | --- |
| CC(C)=CCC[C@H](C)CCOc1cc(C(C)(C)C)c(O)c(C(C)(C)C)c1 [MDL 103,294, Phenol, 2,6-bis(1,1-dimethylethyl)-4-[(3,7-dimethyl-6-octenyl)oxy]-, (S)-] | 132 | 124 | 88 | 103 | 102 | 56 | 64600 | 21700 |  |  |
| CC(C)=CCCC(C)CCSc1cc(C(C)(C)C)c(O)c(C(C)(C)C)c1 (stereo not shown) [MDL 103,960, Phenol, 2,6-bis(1,1-dimethylethyl)-4-[(3,7-dimethyl-6-octenyl)thio]-] | 117 | 125 | 102 | 110 | 113 | 80 | 47300 | 8700 | 33.9 ± 6 | 363 |
| CC(C)CCCC(C)CCOc1ccc(O)c(C(C)(C)C)c1 (stereo not shown) [MDL 104,191, Phenol, 2-(1,1-dimethylethyl)-4-[(3,7-dimethyloctyl)oxy]-] | 149 | 81 | 146 | 106 | 109 | 112 | 16100 | 6900 | 42.9 ± 7 | 708 |
| CC(C)=CCC[C@@H](C)CCOc1cc(C(C)(C)C)c(O)c(C(C)(C)C)c1 [MDL 104,535, Phenol, 2,6-bis(1,1-dimethylethyl)-4-[(3,7-dimethyl-6-octenyl)oxy]-,(R)-] | 108 | 151 | 94 | 112 | 103 | 60 | 60300 | 16300 | 26.4 ± 14 |  |
